Article PMC9130233, “An inhibitor of RORγ for chronic pulmonary obstructive disease treatment” (Scientific Reports, 2022)
Values joined by “and” are separate entries in the source; they are usually repeats but may differ in a detail not shown here. Equal values may be shown once. Marks after values point to notes of the source that are not given here.

Tests used:
[1] = system: IL-17A release in canine PBMC; test: IL-17A release, canine PBMC, anti-CD3 + anti-CD28; assay type: cell-based; settings: Canis lupus familiaris, anti-CD3 + anti-CD28, n = 6, read-out: Cellular activity: Canine IC50, IL-17A release
Procedure: Inhibition of RORγ by PCCR-1 was also estimated in a functional assay by measuring the inhibition of Th17 dependent cytokine IL-17A release in human peripheral blood mononuclear cells (PBMCs), mouse splenocytes and canine PBMC stimulated with their respective anti-CD3 and anti-CD28 antibodies.
Canine PBMCs were procured from Lonza (Cologue, Germany). Frozen canine PBMCs was quickly thawed in a 37 °C water bath and cells were seeded in 96-well plates coated with canine anti-CD3mAb (30 µg/mL). Cells were further treated with the compound similar to human PBMC with co-stimulation of canine anti-CD28 mAb (10 µg/mL). After 72 h of incubation the supernatant was collected for estimating canine IL-17 by ELISA.

[2] = system: T1, RARα; test: TR-FRET selectivity binding assay, RARα
T1 construct: purchased Invitrogen
Description: (§1) Based on the homology of the ligand binding domains, 3 different isoforms of ROR (hRORα, hRORβ and hRORγ) are reported. Small variations in the LBD regions possibly lead to differences in competitive binding between the nuclear receptors of the ROR isoforms (Fig. 1b). Similar to the assessment of RORγ binding assay, TR-FRET binding assays were also used to assess the affinity of PCCR-1 for other ROR isoforms. […] This was reconfirmed in cellular functional assays for the selected isoforms and nuclear receptors using Gal4 DBD with luciferase reporter system from Indigo (PA, USA). […] In addition, both cellular agonist and antagonist effects as well as for enzyme activity were evaluated with a known reference compound for each target, using a radiolabeled method (Eurofins Cerep, France, Table 1).
(§2) For selectivity, the ROR isoforms RORα, FXR, LXRα, LXRβ, RXR, RARα were incubated with compound for 60 min at 22 °C followed by detection mix containing respective agonist (All trans retinoic acid for RARα, T0901317 for LXRα, LXRβ, 9-cis Retinoic acid for RXR, GW-4064 for FXR) and coactivator peptide (FD22 for RORα, PGC1α for RXR, RARα, TRAP220 for LXRα, LXRβ, SRC2-2 for FXR) and Tb-anti GST antibody prepared in assay buffer were added into a 384-well white plate. Reading taken after overnight incubation and the data analysis done as per the protocol mentioned in RORγt-LBD and co-activator ligand binding assay.

[3] = target: non RORγ isoforms and other major nuclear receptors; test: TR-FRET binding assays, other ROR isoforms and major nuclear receptors (summary)
Description: as §1
as §2, with “Reading taken after overnight incubation and the data analysis done as per the protocol mentioned in RORγt-LBD and co-activator ligand binding assay.” left out

[4] = system: IL-17 release from COPD patient whole blood; test: IL-17 release, whole blood from COPD patients; assay type: cell-based; settings: Homo sapiens; TCR stimulated, n = 5; read-out: IL-17 IC50, COPD patient's sample: WB
Procedure: Whole blood and BAL samples from COPD patients were obtained from Multispecialty hospital, Mumbai post approval from ethics committee and informed consent of patients. 30–40 mL Broncho alveolar lavage (BALf) was collected per patient and stored in ice. Blood was collected in heparin vaccutainer as per approved protocol. Both the samples were processed within 2 h of collection. BALF was passed through 100-µm and 40-µm cell strainer to remove debris and mucus, the samples were centrifuged and the cells were re-suspended in RPMI 1640 complete medium. PBMCs from blood were isolated using Histopaque-1077 by density gradient centrifugation. Isolated BAL cells and PBMCs were seeded in 96 well coated with 10 µg/ml anti-CD3 and 2 µg/ml anti-CD2. Cells were further treated with different concentration of test compound for 60 min followed by stimulation with 20 µg/ml anti-CD28 and incubated for 48–72 h. The supernatant was used for estimating IL-17 by ELISA.

[5] = 14-day dose-range inhalation toxicology study in Sprague Dawley rats; assay type: in vivo, rat
Procedure: Rats were exposed to PCCR-1 aerosols at 3.4, 10.8 and 32.1 mg/kg/day (delivered dose) for 60 min daily for 14 days using a snout only exposure technique via a modular stainless steel flow past inhalation chamber at indicated doses as mentioned in Table 3. No treatment-related findings noted, including myeloid:erythroid (M:E) ratios in any dose levels except minimal changes in the reticulocytes and adrenal glands.
The 14-day dose-range inhalation toxicology study was conducted at Charles River Laboratories Edinburgh Ltd, Elphinstone Research Centre, Tranent, East Lothian, EH33 2NE, UK, under the Home Office Project License No. PPL 70/8778, Toxicology of Pharmaceuticals. The UK Home Office controls scientific procedures on animals in the UK and does so by the issue of licences under the Animals (Scientific Procedures) Act 1986. The regulations conform to EU Directive 2010/63/EU and achieve the standard of care required by the US Department of Health and Human Services' Guide for the Care and Use of Laboratory Animals.
The toxicology study was done in SD (Sprague Dawley) rats that were exposed to PCCR-1 aerosol for 60 min daily at 3.4, 10.8 and 32.1 mg/kg/day (delivered dose) for 14 days using a snout only exposure technique via a modular stainless steel flow past inhalation chamber. A 60% w/w blend of PCCR-1 in Lactose LH201 was prepared by adding the appropriate amount of PCCR-1 to the appropriate amount of lactose. The estimated delivered doses were derived based on analytical aerosol concentration, and respiratory minute volume calculated based on body weight, exposure duration, and animal body weight (Supplementary section B).

[6] = Females (n = 5/group), 32.1 mg/kg/day
[7] = Males (n = 5/group), 32.1 mg/kg/day

## CCn1c(C(C)(C)Oc2ccc(F)cc2F)nc2cc(NC(=O)Cc3ccc(S(=O)(=O)CC)cc3)ccc21 [PCCR-1]
[1]
  IC50: 0.504 µM
[2]; 1 µM
  % Inhibition RARα: 0.00%
[2]; 10 µM
  % Inhibition RARα: 0.00%
[2]; vs RORg IC50 31.87 nM
  Fold over hRORγ, RARα: > 313.7 fold
[3]; TR-FRET, read-out: IC50 for the rest of the non RORγ isoforms and other major nuclear receptors
  IC50: > 10 µM
[3]; relative to RORγ
  fold selectivity over other ROR isoforms / nuclear receptors: > 313.7 fold and > 300 fold
[4]
  IC50: 5.05 µM
[5]; [6]
  Microscopic changes: Hypertrophy; zona fasciculata, diffuse (animals affected): 3
  Microscopic changes: hypertrophy, Mild (animals affected): 2
  Microscopic changes: hypertrophy, Minimal (animals affected): 1
[5]; Females, 32.1 mg/kg/day
  adrenal gland Absolute weight (mean ± SD): 0.0950 ± 0.0139 g
  adrenal gland weight Relative to body weight (mean ± SD): 0.03168 ± 0.00549%
  adrenal gland weight Relative to brain weight (mean ± SD): 4.657 ± 0.6176%
[5]; Females, 32.1 mg/kg/day, P ≤ 0.01
  Reticulocyte count (mean ± SD): 295.4 ± 40.3* 10^9/L
[5]; [7]
  Microscopic changes: Hypertrophy; zona fasciculata, diffuse (animals affected): 0
  Microscopic changes: hypertrophy, Mild (animals affected): 0
  Microscopic changes: hypertrophy, Minimal (animals affected): 0
[5]; Males, 32.1 mg/kg/day
  Reticulocyte count (mean ± SD): 287.7 ± 62.6 10^9/L
  adrenal gland Absolute weight (mean ± SD): 0.0581 ± 0.0083 g
  adrenal gland weight Relative to body weight (mean ± SD): 0.01553 ± 0.00171%
  adrenal gland weight Relative to brain weight (mean ± SD): 2.803 ± 0.3041%
[5]; Sprague Dawley, in vivo, inhaled or intranasal, rat, 14-day inhalation, read-out: maximum tolerated dose
  MTD at 14 days: 32.1 mg/kg/day
[5]; female, Sprague-Dawley, rat, in vivo, 14 days
  Microscopic changes: hypertrophy, Minimal (animals affected): 0
[5]; rat, in vivo
  histopathological change of the adrenal gland: bilateral diffuse hypertrophy of the zona fasciculata
  reticulocyte count compared with the control group: 1.09 fold
